Data: ChEMBL document CHEMBL4813951 (Eur J Med Chem, 2021)

Columns and labels:
D(2) dopamine receptor [1] = target: T1, D(2) dopamine receptor (Homo sapiens, UniProt P14416); assay: Displacement of [3H]N-methylspiperone from human D2L receptor expressed in HEK293T cells co-expressing CRE-Luc incubated for 60 mins by microbeta scintillation counting method; type: cell-based
Histamine H2 receptor [2] = target: T2, Histamine H2 receptor (Homo sapiens, UniProt P25021); assay: Agonist activity at human histamine H2 receptor expressed in sf9 insect cell membranes co-exprssing GsalphaS assessed as intrinsic activity at >=30 uM incubated for 90 mins [35S]GTPgammaS binding based microbeta scintillation counting analysis relative to histamine; type: functional; conditions: Membrane, filed as agonist, dose microM >=30, time 90.0 min
Histamine H2 receptor [3] = target: T2, Histamine H2 receptor; assay: Displacement of [3H]UR-DE257 from human histamine H2 receptor expressed in sf9 insect cell membranes co-expressing GSalphaS incubated for 60 mins by microbeta scintillation counting method; parameters: species or system Membrane
Histamine H1 receptor = Histamine H1 receptor (Homo sapiens, UniProt P35367); assay: Displacement of [3H]mepyramine from human histamine H1 receptor expressed in sf9 insect cell membranes co-expressing RGS4 incubated for 60 mins by microbeta scintillation counting method; parameters: species or system Membrane
Histamine H3 receptor = Histamine H3 receptor (Homo sapiens, UniProt Q9Y5N1); assay: Displacement of [3H]UR-P129 from human histamine H3 receptor expressed in sf9 insect cell membranes co-expressing Galphai2/Gbeta1gamma2 incubated for 60 mins by microbeta scintillation counting method; parameters: species or system Membrane
D(3) dopamine receptor [4] = target: T3, D(3) dopamine receptor (Homo sapiens, UniProt P35462); assay: Displacement of [3H]N-methylspiperone from human D3 receptor expressed in HEK293T cells co-expressing CRE-Luc incubated for 60 mins by microbeta scintillation counting method; type: cell-based
Histamine H4 receptor = Histamine H4 receptor (Homo sapiens, UniProt Q9H3N8)
Histamine H2 receptor [5] = target: T2, Histamine H2 receptor; assay: Agonist activity at human histamine receptor expressed in sf9 insect cell membranes co-exprssing GsalphaS incubated for 90 mins [35S]GTPgammaS binding based microbeta scintillation counting analysis; type: functional, Membrane
D(3) dopamine receptor [6] = target: T3, D(3) dopamine receptor; assay: Agonist activity at […] expressed in HEK293T cells co-expressing ELucC by beta arrestin2 recruitment assay; type: functional, cell-based
Histamine H2 receptor [7] = target: T2, Histamine H2 receptor; assay: Agonist activity at human histamine H2 receptor expressed in HEK293T cells co-expressing ELucC by beta arrestin2 recruitment assay; type: functional, cell-based
D(2) dopamine receptor [8] = target: T1, D(2) dopamine receptor; type: functional, cell-based, HEK293T
Histamine H2 receptor [9] = target: Histamine H2 receptor (Cavia porcellus, UniProt P47747); assay: Agonist activity at guinea pig right atrium histamine H2 receptor assessed as increase in heart rate incubated for 30 mins in presence of cimetidine; type: functional, tissue-based, Right cardiac atrium
[10] = target: Histamine H2 receptor (Cavia porcellus) (UniProt P47747); assay: Agonist activity at guinea pig right atrium histamine H2 receptor assessed as intrinsic activity incubated for 30 mins in presence of cimetidine relative to histamine; type: functional, tissue-based; conditions: Right cardiac atrium, filed as agonist
Histamine H2 receptor (Cavia porcellus), sequence (P47747 whole entry): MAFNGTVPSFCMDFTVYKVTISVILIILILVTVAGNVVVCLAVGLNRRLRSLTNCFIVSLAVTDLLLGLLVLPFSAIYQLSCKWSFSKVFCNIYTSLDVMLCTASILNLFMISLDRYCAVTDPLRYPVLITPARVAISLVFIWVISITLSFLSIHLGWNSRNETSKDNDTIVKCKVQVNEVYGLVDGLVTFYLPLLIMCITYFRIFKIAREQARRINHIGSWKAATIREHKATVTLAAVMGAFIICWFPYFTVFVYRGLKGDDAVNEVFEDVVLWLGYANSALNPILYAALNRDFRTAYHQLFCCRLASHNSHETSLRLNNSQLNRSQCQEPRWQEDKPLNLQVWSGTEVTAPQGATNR

Histamine H3 receptor, sequence (Q9Y5N1 whole entry): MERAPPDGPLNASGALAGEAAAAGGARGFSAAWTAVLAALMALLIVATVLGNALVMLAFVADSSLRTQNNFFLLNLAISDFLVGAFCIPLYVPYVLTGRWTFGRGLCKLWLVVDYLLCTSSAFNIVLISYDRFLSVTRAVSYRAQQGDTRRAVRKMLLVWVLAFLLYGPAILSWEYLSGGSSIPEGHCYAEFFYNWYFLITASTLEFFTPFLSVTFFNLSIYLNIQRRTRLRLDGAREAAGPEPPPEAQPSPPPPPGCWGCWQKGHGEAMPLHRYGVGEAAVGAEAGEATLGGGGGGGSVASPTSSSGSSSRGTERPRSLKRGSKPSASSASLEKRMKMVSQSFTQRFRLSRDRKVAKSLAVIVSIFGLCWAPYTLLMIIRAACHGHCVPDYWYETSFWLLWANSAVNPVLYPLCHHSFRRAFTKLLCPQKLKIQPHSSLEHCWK
T1 sequence (P14416 whole entry): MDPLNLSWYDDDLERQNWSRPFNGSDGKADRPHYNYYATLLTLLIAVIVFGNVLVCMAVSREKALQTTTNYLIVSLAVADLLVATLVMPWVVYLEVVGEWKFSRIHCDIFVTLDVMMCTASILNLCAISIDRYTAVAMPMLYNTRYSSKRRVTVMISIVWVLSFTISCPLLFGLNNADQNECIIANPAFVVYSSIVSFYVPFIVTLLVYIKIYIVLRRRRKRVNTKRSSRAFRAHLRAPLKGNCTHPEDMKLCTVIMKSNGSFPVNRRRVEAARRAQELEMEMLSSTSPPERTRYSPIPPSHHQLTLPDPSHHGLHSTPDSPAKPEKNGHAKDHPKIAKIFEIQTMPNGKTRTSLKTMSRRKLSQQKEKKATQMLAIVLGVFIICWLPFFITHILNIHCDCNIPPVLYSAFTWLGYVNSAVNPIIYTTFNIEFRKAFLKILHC
Histamine H4 receptor, sequence (Q9H3N8 whole entry): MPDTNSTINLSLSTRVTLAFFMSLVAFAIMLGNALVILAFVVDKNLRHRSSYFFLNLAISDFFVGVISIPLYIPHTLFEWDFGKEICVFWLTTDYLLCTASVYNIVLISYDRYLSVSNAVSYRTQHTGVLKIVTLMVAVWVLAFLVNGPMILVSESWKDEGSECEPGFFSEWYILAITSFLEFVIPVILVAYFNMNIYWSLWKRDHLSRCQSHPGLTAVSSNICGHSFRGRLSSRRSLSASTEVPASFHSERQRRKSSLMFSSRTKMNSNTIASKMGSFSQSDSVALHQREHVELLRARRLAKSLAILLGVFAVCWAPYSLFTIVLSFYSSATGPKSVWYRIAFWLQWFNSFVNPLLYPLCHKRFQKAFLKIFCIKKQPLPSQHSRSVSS
T2 sequence (P25021 whole entry): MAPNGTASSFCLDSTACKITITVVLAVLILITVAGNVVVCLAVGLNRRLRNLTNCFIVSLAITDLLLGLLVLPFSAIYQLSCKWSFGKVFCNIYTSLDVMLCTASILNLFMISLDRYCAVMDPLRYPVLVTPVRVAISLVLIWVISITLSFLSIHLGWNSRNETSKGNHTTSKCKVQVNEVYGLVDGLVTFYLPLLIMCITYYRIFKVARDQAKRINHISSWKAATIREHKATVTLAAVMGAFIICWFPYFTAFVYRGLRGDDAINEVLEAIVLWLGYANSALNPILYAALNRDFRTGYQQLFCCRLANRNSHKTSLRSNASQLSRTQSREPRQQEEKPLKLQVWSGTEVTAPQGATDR
Histamine H2 receptor (Cavia porcellus, UniProt P47747), sequence (P47747 whole entry): as the sequence (P47747 whole entry) above
Histamine H1 receptor, sequence (P35367 whole entry): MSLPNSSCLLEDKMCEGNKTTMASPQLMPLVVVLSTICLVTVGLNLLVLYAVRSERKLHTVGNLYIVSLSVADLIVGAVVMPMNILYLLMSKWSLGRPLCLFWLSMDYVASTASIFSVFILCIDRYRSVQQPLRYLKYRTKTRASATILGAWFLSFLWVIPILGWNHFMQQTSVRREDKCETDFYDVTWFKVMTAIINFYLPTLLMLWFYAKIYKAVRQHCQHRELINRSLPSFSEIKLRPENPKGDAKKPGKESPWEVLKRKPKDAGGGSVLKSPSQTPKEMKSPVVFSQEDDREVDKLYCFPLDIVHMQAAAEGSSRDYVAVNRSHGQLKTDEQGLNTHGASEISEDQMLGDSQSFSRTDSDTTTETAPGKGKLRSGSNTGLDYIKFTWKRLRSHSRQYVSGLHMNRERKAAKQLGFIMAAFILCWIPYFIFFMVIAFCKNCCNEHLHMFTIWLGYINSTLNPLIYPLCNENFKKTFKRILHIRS
T3 sequence (P35462 whole entry): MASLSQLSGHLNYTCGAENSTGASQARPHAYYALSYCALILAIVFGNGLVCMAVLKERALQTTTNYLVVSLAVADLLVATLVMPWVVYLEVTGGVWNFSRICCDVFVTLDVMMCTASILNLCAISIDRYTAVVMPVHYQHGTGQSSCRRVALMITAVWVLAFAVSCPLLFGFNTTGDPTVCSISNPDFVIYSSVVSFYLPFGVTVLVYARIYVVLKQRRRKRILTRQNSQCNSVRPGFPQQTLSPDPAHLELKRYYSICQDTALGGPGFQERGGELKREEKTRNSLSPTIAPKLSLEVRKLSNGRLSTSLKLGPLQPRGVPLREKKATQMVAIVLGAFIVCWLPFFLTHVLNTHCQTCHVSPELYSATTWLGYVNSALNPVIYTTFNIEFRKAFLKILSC

SMILES	Ki (D(2) dopamine receptor [1])	Intrinsic activity (Histamine H2 receptor [2])	Ki (Histamine H2 receptor [3])	Ki (Histamine H1 receptor)	Ki (Histamine H3 receptor)	Ki (D(3) dopamine receptor [4])	Ki (Histamine H4 receptor)	EC50 (Histamine H2 receptor [5])	EC50 (D(3) dopamine receptor [6])	EC50 (Histamine H2 receptor [7])	EC50 (D(2) dopamine receptor [8])	EC50 (Histamine H2 receptor [9])	Intrinsic activity [10]
CCCCCCNC(=O)/N=C(\N)NC1CCc2nc(N)sc2C1 (stereo not given)	1260 nM	0.16	1120 nM	1950 nM	1510 nM	1260 nM	16600 nM	148 nM					
Cc1nc(N)sc1CCCN/C(N)=N/C(=O)NCc1ccccc1	603 nM	0.91	69.2 nM	6170 nM	19500 nM	45.7 nM	19100 nM	28.8 nM	33.9 nM	100 nM	1660 nM		
Cc1nc(N)sc1CCCN/C(N)=N/C(=O)NC(C)c1cccs1 (stereo not given)			63.1 nM	25700 nM	58900 nM		30200 nM					10 nM	0.88
Cc1nc(N)sc1CCCN/C(N)=N/C(=O)NCC(c1ccccc1)c1ccccc1			87.1 nM	5250 nM	10000 nM		4900 nM					174 nM	0.76
Cc1nc(N)sc1CCCN/C(N)=N/C(=S)NC(c1ccccc1)c1ccccc1			603 nM	46800 nM	43700 nM		23400 nM					66.1 nM	0.67
CCCCCNC(=O)/N=C(\N)NCCCc1sc(N)nc1C	447 nM		4.47 nM	10700 nM	10500 nM		4270 nM			178 nM	1050 nM	5.75 nM	
CCC(CNC(=O)/N=C(\N)NCCCc1sc(N)nc1C)c1ccccc1 (stereo not given)			77.6 nM	7940 nM	16600 nM	64.6 nM	6760 nM	28.8 nM	40.7 nM	269 nM			
N/C(=N\C(=O)NCc1ccccc1)NC1CCc2nc(N)sc2C1 (stereo not given)	550 nM	0.53	513 nM	1200 nM	3310 nM	5010 nM	30200 nM	214 nM		4370 nM			
N/C(=N\C(=O)NCCc1ccccc1)Nc1cccc(-c2csc(N)n2)c1							30200 nM						
Cc1nc(N)sc1CCCN/C(N)=N/C(=O)NC[C@@H](C)c1ccccc1			102 nM	9550 nM	26900 nM		13500 nM					12.9 nM	0.98
Cc1nc(N)sc1CCCN/C(N)=N/C(=S)N[C@@H](C)c1ccccc1			339 nM	77600 nM	81300 nM		55000 nM					224 nM	0.65
N/C(=N\C(=O)NCc1ccccc1)Nc1cccc(-c2csc(N)n2)c1							34700 nM						
Cc1nc(N)sc1CCCN/C(N)=N/C(=O)NC1CCCCC1			170 nM	24500 nM			31600 nM	148 nM		389 nM			
Cc1nc(N)sc1CCCN/C(N)=N/C(=O)NCC(C)CCCc1ccccc1 (stereo not given)			60.3 nM	7080 nM	2290 nM		776 nM			2510 nM			
Cc1nc(N)sc1CCCN/C(N)=N/C(=O)NCCc1ccccc1		0.72	158 nM				14800 nM	44.7 nM		166 nM			
Cc1nc(N)sc1CCCN/C(N)=N/C(=O)NC(c1ccccc1)c1ccccc1				15800 nM	9120 nM		6310 nM					39.8 nM	
Cc1nc(N)sc1CCCN/C(N)=N/C(=O)NC[C@H](C)c1ccccc1			100 nM	8710 nM	17000 nM		12000 nM					25.7 nM	0.99
Cc1nc(N)sc1CCCN/C(N)=N/C(=S)N[C@H](C)c1ccccc1	1170 nM		115 nM	110000 nM	64600 nM	60.3 nM	26900 nM		166 nM	372 nM	1510 nM	89.1 nM	0.87
Cc1nc(N)sc1CCCN/C(N)=N/C(=O)NC(C)c1ccco1 (stereo not given)	1700 nM		31.6 nM	45700 nM	43700 nM	17.4 nM	45700 nM		102 nM	234 nM	1070 nM	9.77 nM	1
Cc1nc(N)sc1CCCN/C(N)=N/C(=O)NC(C)c1ccc(Cl)cc1 (stereo not given)			46.8 nM	4470 nM	17800 nM		8510 nM					24.5 nM	0.93

SMILES	Ki (D(2) dopamine receptor [1])	Intrinsic activity (Histamine H2 receptor [2])	Ki (Histamine H2 receptor [3])	Ki (Histamine H1 receptor)	Ki (Histamine H3 receptor)	Ki (D(3) dopamine receptor [4])	Ki (Histamine H4 receptor)	EC50 (Histamine H2 receptor [5])	EC50 (D(3) dopamine receptor [6])	EC50 (Histamine H2 receptor [7])	EC50 (D(2) dopamine receptor [8])	EC50 (Histamine H2 receptor [9])	Intrinsic activity [10]
Cc1nc(N)sc1CCCN/C(N)=N/C(=O)NC(C)c1ccc(OC(F)(F)F)cc1 (stereo not given)			126 nM	21900 nM	14500 nM		8130 nM					724 nM	0.61
CCCNC(=O)/N=C(\N)NCCCc1sc(N)nc1C		0.79	105 nM	28800 nM	44700 nM		87100 nM	178 nM		170 nM			
Cc1nc(N)sc1CCCN/C(N)=N/C(=S)NC[C@H](C)c1ccccc1			1150 nM	63100 nM	69200 nM		44700 nM					490 nM	0.44
CCC(NC(=O)/N=C(\N)NCCCc1sc(N)nc1C)c1ccccc1 (stereo not given)			63.1 nM	12600 nM	21900 nM		11200 nM					10.7 nM	0.93
Cc1nc(N)sc1CCCN/C(N)=N/C(=O)NCc1ccco1			10.5 nM	24000 nM	74100 nM		75900 nM					11.7 nM	0.58
Cc1ccc(CC(C)CNC(=O)/N=C(\N)NCCCc2sc(N)nc2C)cc1 (stereo not given)			72.4 nM	1660 nM	3240 nM		3630 nM	60.3 nM		132 nM			
Cc1nc(N)sc1CCCN/C(N)=N/C(=O)NCC(C)CC1CCCCC1 (stereo not given)			70.8 nM	3800 nM	7410 nM	132 nM	3720 nM	17.4 nM	302 nM	302 nM			
COc1ccc(C(C)NC(=O)/N=C(\N)NCCCc2sc(N)nc2C)cc1 (stereo not given)			37.2 nM	5890 nM	33100 nM		20000 nM					38 nM	0.91
Cc1nc(N)sc1CCCN/C(N)=N/C(=O)NC(c1ccccc1)C(F)(F)F (stereo not given)			229 nM	53700 nM	31600 nM		17400 nM					47.9 nM	0.85
Cc1nc(N)sc1CCCN/C(N)=N/C(=O)NC(c1ccccc1)C(C)C (stereo not given)			35.5 nM	24500 nM	19100 nM		7940 nM					34.7 nM	1.04
CCCN[C@@H]1CCc2nc(N)sc2C1 [DEXPRAMIPEXOLE]			13800 nM					8510 nM		39800 nM			
Cc1nc(N)sc1CCCN/C(N)=N/C(=O)Nc1ccccc1		0.59	3160 nM				22400 nM	525 nM		3390 nM			
Cc1nc(N)sc1CCCN/C(N)=N/C(=S)NC[C@@H](C)c1ccccc1			427 nM	52500 nM	83200 nM		32400 nM					148 nM	0.66
Cc1nc(N)sc1CCCN/C(N)=N/C(=O)NC(C)c1cccc(F)c1 (stereo not given)			2.04 nM	7760 nM	38900 nM	8.71 nM	13200 nM		72.4 nM	64.6 nM		26.3 nM	
Cc1nc(N)sc1CCCN/C(N)=N/C(=O)N[C@@H](C)c1ccccc1			51.3 nM	21400 nM	33100 nM	24.5 nM	17800 nM		229 nM			23.4 nM	
Cc1nc(N)sc1CCCN/C(N)=N/C(=O)NC(C)c1ccccc1F (stereo not given)			28.8 nM	17000 nM	30900 nM		12900 nM					12.3 nM	0.93
Cc1nc(N)sc1CCCN/C(N)=N/C(=O)NC(C)c1ccc(F)cc1 (stereo not given)			31.6 nM	10200 nM	25700 nM		13800 nM					23.4 nM	0.92
Cc1nc(N)sc1CCCN/C(N)=N/C(=O)NC(C)c1ccc(Br)cc1 (stereo not given)			30.2 nM	2880 nM	12900 nM		8130 nM					55 nM	0.87
Cc1ccc(C(C)NC(=O)/N=C(\N)NCCCc2sc(N)nc2C)cc1 (stereo not given)			30.9 nM	5130 nM	26300 nM		11200 nM					22.4 nM	0.85
